This note sets out measurements from ChEMBL document CHEMBL6114963, “Discovery and preclinical evaluations of drug candidate DA-0157 capable of overcoming EGFR drug-resistant mutation C797S and EGFR/ALK co-mutations” (Eur J Med Chem, 2025).

The target of this assay is ALK tyrosine kinase receptor (Homo sapiens, UniProt Q9UM73, L1196M). As to the kind of experiment: Inhibition of N-terminal GST-fused cytoplasmic domain human ALK L1196M mutant (1058 to 1620 end residues) extracted from baculovirus expression system using Srctide as substrate incubated for 1 to 5 hrs in presence of ATP/Mg by Mobility shift assay.
ALK tyrosine kinase receptor, sequence (Q9UM73 19-1620 L1196M limits assumed): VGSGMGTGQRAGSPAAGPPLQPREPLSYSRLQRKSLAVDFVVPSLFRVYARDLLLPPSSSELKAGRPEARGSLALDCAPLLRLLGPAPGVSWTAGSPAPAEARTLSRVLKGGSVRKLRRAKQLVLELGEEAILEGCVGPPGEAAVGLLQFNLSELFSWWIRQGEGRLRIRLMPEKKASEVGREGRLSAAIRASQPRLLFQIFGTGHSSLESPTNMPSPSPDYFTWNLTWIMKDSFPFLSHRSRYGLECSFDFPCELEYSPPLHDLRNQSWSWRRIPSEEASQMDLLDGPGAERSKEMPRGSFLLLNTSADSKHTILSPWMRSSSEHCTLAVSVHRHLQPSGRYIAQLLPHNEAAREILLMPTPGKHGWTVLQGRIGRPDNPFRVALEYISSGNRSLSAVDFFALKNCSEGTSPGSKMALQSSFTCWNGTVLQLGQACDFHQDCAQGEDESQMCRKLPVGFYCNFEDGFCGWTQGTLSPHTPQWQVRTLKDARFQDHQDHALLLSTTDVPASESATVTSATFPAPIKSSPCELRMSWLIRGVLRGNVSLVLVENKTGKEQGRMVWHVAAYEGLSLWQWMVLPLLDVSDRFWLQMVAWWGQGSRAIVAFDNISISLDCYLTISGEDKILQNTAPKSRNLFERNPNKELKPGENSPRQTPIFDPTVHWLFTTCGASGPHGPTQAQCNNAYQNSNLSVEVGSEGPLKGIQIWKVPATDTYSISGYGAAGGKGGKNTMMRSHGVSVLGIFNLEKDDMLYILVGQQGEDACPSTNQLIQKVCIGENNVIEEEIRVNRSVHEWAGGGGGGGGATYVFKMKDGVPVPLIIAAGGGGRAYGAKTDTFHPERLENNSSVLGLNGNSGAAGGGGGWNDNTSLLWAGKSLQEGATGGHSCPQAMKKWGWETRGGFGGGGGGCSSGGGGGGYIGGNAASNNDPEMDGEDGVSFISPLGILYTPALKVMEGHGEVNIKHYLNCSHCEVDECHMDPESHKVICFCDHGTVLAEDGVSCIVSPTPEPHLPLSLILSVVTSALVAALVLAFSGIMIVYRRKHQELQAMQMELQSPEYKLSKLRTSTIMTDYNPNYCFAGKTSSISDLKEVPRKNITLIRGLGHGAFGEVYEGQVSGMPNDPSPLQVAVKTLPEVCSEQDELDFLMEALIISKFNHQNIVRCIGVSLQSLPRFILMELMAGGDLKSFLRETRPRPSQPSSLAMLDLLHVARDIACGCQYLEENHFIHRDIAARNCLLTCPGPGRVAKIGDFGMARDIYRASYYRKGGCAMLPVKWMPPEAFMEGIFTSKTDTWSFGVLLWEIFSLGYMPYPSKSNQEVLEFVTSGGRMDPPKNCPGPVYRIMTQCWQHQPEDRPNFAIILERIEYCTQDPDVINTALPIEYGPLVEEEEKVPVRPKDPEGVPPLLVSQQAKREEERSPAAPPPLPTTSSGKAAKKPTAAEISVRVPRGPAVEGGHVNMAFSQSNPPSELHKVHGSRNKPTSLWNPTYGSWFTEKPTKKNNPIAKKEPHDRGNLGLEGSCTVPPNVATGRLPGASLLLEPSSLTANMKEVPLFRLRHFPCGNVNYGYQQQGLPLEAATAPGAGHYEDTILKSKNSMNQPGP

By IC50 is commonly meant the concentration that inhibits the measured activity by half. As to `COc1cc(N2CCC(N3CCN(C)CC3)CC2)c(C)cc1Nc1ncc(Br)c(Nc2ccc(C)cc2P(C)(C)=O)n1`, the half-maximal inhibitory concentration (IC50) was 0.89 nM.
